Measured values: patent US8846698B2, “Pyrrolo[2,3-d]pyrimidine tropomysin-related kinase inhibitors” (Pfizer Limited, priority 2011, dated 2014)

Molecular target: TRKA (Homo sapiens (Human), UniProt P04629)
Assay: Isolated TRK enzyme assay (HTRF KinEASE-TK), TRKA
Assay type: biochemical
Settings: read-out: Trka enzyme (IC50)

TRKA, sequence (P04629 441-796): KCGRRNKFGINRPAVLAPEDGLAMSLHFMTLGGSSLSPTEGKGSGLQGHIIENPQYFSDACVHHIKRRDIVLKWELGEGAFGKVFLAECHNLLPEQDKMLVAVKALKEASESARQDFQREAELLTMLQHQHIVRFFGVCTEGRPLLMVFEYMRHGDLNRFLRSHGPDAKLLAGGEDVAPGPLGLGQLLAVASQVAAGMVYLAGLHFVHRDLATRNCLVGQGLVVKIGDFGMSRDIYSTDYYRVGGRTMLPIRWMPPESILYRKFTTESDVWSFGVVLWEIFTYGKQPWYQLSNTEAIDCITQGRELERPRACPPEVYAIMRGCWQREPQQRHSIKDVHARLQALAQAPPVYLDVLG

Row | Compound | IC50
1 | CC(C)n1cc(C(=O)c2cncc(NC(=O)c3ccn4nccc4c3)c2)c2cncnc21 [Example 448, Pyrazolo[1,5-a]pyridine-5-carboxylic acid [5-(7-isopropyl-7H-pyrrolo[2,3-d]pyrimidine-5-carbonyl)-pyridin-3-yl]-amide] | 272 nM
2 | CC(C)n1cc(C(=O)c2cncc(NC(=O)c3nccc4occc34)c2)c2cncnc21 [Example 380, Furo[3,2-c]pyridine-4-carboxylic acid [5-(7-isopropyl-7H-pyrrolo[2,3-d]pyrimidine-5-carbonyl)-pyridin-3-yl]-amide] | 422 nM
3 | Cn1cc(C(=O)c2cncc(NC(=O)Cc3ccc(SC(F)(F)F)cc3)c2)c2cncnc21 [Example 182, N-{5-[(7-methyl-7H-pyrrolo[2,3-d]pyrimidin-5-yl)carbonyl]pyridin-3-yl}-2-{4-[(trifluoromethyl)thio]phenyl}acetamide] | 543 nM
4 | Cn1cc(C(=O)c2cncc(NC(=O)CCc3cccc(F)c3)c2)c2cncnc21 [Example 324, 3-(3-fluorophenyl)-N-{5-[(7-methyl-7H-pyrrolo[2,3-d]pyrimidin-5-yl)carbonyl]pyridin-3-yl}propanamide] | 3100 nM
5 | N#Cc1ccc(CC(=O)Nc2cncc(C(=O)c3cn(C4COC4)c4ncncc34)c2)cc1 [Example 218, 2-(4-cyanophenyl)-N-{5-[(7-oxetan-3-yl-7H-pyrrolo[2,3-d]pyrimidin-5-yl)carbonyl]pyridin-3-yl}acetamide] | 1210 nM
6 | CC(C)n1cc(C(=O)c2c[nH]c(=O)c(NC(=O)Cc3ccc4cccnc4c3)c2)c2cncnc21 [Example 588, N-(2-oxo-5-{[7-(propan-2-yl)-7H-pyrrolo[2,3-d]pyrimidin-5-yl]carbonyl}-1,2-dihydropyridin-3-yl)-2-(quinolin-7-yl)acetamide] | 334 nM
7 | Cc1ccnn1CC(=O)Nc1cncc(C(=O)c2cn(C(C)C)c3ncncc23)c1 [Example 130, N-{5-[(7-isopropyl-7H-pyrrolo[2,3-d]pyrimidin-5-yl)carbonyl]pyridin-3-yl}-2-(5-methyl-1H-pyrazol-1-yl)acetamide] | 284 nM
8 | Cc1nc2ccccc2n1CC(=O)Nc1cncc(C(=O)c2cn(C(C)C)c3ncncc23)c1 [Example 127, N-{5-[(7-isopropyl-7H-pyrrolo[2,3-d]pyrimidin-5-yl)carbonyl]pyridin-3-yl}-2-(2-methyl-1H-benzimidazol-1-yl)acetamide] | 1330 nM
9 | Cn1cc(C(=O)c2cncc(NC(=O)Cc3cc(F)cc(F)c3)c2)c2cncnc21 [Example 170, 2-(3,5-difluorophenyl)-N-{5-[(7-methyl-7H-pyrrolo[2,3-d]pyrimidin-5-yl)carbonyl]pyridin-3-yl}acetamide] | 3100 nM
10 | CC(C)n1cc(C(=O)c2cncc(NC(=O)Cc3ccn(-c4ccccc4)c3)c2)c2cncnc21 [Example 140, N-{5-[(7-isopropyl-7H-pyrrolo[2,3-d]pyrimidin-5-yl)carbonyl]pyridin-3-yl}-2-(1-phenyl-1H-pyrrol-3-yl)acetamide] | 219 nM
11 | CCc1nc2cccnc2n1CC(=O)Nc1cncc(C(=O)c2cn(C(C)C)c3ncncc23)c1 [Example 138, 2-(2-ethyl-3H-imidazo[4,5-b]pyridin-3-yl)-N-{5-[(7-isopropyl-7H-pyrrolo[2,3-d]pyrimidin-5-yl)carbonyl]pyridin-3-yl}acetamide] | 8310 nM
12 | CC(C)n1cc(C(=O)c2cncc(NC(=O)c3cc4ncccn4n3)c2)c2cncnc21 [Example 428, Pyrazolo[1,5-a]pyrimidine-2-carboxylic acid [5-(7-isopropyl-7H-pyrrolo[2,3-d]pyrimidine-5-carbonyl)-pyridin-3-yl]amide] | 960 nM
13 | CC(C)n1cc(C(=O)c2cncc(NC(=O)c3cnc4cn[nH]c4c3)c2)c2cncnc21 [Example 395, 1H-Pyrazolo[4,3-b]pyridine-6-carboxylic acid [5-(7-isopropyl-7H-pyrrolo[2,3-d]pyrimidine-5-carbonyl)-pyridin-3-yl]-amide] | 1350 nM
14 | CC(C)n1cc(C(=O)c2c[nH]c(=O)c(NC(=O)Cc3coc(C4CC4)n3)c2)c2cncnc21 [Example 586, 2-(2-cyclopropyl-1,3-oxazol-4-yl)-N-(2-oxo-5-{[7-(propan-2-yl)-7H-pyrrolo[2,3-d]pyrimidin-5-yl]carbonyl}-1,2-dihydropyridin-3-yl)acetamide] | 1000 nM
15 | Cn1cc(C(=O)c2cncc(NC(=O)CCc3ccccc3F)c2)c2cncnc21 [Example 327, 3-(2-fluorophenyl)-N-{5-[(7-methyl-7H-pyrrolo[2,3-d]pyrimidin-5-yl)carbonyl]pyridin-3-yl}propanamide] | 3100 nM
16 | Cc1csc2nc(CC(=O)Nc3cncc(C(=O)c4cn(C(C)C)c5ncncc45)c3)cn12 [Example 373, N-[5-(7-Isopropyl-7H-pyrrolo[2,3-d]pyrimidine-5-carbonyl)-pyridin-3-yl]-2-(3-methyl-imidazo[2,1-b]thiazol-6-yl)-acetamide] | 813 nM
17 | CC(C)n1cc(C(=O)c2cncc(NC(=O)Cc3ccc4[nH]c(C(F)(F)F)nc4c3)c2)c2cncnc21 [Example 84, N-{5-[(7-isopropyl-7H-pyrrolo[2,3-d]pyrimidin-5-yl)carbonyl]pyridin-3-yl}-2-[2-(trifluoromethyl)-1H-benzimidazol-5-yl]acetamide] | 2860 nM
18 | Cn1cc(C(=O)c2cncc(NC(=O)Cc3ccccc3C(F)(F)F)c2)c2cncnc21 [Example 169, N-{5-[(7-methyl-7H-pyrrolo[2,3-d]pyrimidin-5-yl)carbonyl]pyridin-3-yl}-2-[2-(trifluoromethyl)phenyl]acetamide] | 3100 nM
19 | CC(C)n1cc(C(=O)c2cncc(NC(=O)c3cc4cnccc4[nH]3)c2)c2cncnc21 [Example 454, 1H-Pyrrolo[3,2-c]pyridine-2-carboxylic acid [5-(7-isopropyl-7H-pyrrolo[2,3-d]pyrimidine-5-carbonyl)-pyridin-3-yl]-amide] | 633 nM

Compounds with a lower IC50, results first:

Row | IC50 | Compound
20 | 45.3 nM | CC(C)n1cc(C(=O)c2cncc(NC(=O)Cc3ccc(C#N)cc3)c2)c2cnc(N)nc21 [Example 241, N-{5-[(2-amino-7-isopropyl-7H-pyrrolo[2,3-d]pyrimidin-5-yl)carbonyl]pyridin-3-yl}-2-(4-cyanophenyl)acetamide]
21 | 23.7 nM | CC(C)c1cn(CC(=O)Nc2cncc(C(=O)c3cn(C(C)C)c4nc(N)ncc34)c2)nn1 [Example 248, N-{5-[(2-amino-7-isopropyl-7H-pyrrolo[2,3-d]pyrimidin-5-yl)carbonyl]pyridin-3-yl}-2-(4-isopropyl-1H-1,2,3-triazol-1-yl)acetamide]
22 | 50 nM | CN(C(=O)Cc1ccc(Cl)cn1)c1cncc(C(=O)c2cn(C(C)(C)C)c3ncncc23)c1 [Example 543, N-[5-(7-tert-Butyl-7H-pyrrolo[2,3-d]pyrimidine-5-carbonyl)-pyridin-3-yl]-2-(5-chloro-pyridin-2-yl)-N-methyl-acetamide]
23 | 153 nM | CC(C)n1cc(C(=O)c2cncc(NC(=O)c3cc4cc(F)cnc4[nH]3)c2)c2cncnc21 [Example 399, 5-Fluoro-1H-pyrrolo[2,3-b]pyridine-2-carboxylic acid [5-(7-isopropyl-7H-pyrrolo[2,3-d]pyrimidine-5-carbonyl)-pyridin-3-yl]-amide]
24 | 22.6 nM | CC(CO)(CO)n1cc(C(=O)c2cncc(NC(=O)Cn3ccc(C(F)(F)F)n3)c2)c2cncnc21 [Example 239, N-[5-({7-[2-hydroxy-1-(hydroxymethyl)-1-methylethyl]-7H-pyrrolo[2,3-d]pyrimidin-5-yl}carbonyl)pyridin-3-yl]-2-[3-(trifluoromethyl)-1H-pyrazol-1-yl]acetamide]
25 | 38.4 nM | CC(C)n1cc(C(=O)c2cncc(NC(=O)Cc3ccc(F)cn3)c2)c2cnc(N)nc21 [Example 243, N-{5-[(2-amino-7-isopropyl-7H-pyrrolo[2,3-d]pyrimidin-5-yl)carbonyl]pyridin-3-yl}-2-(5-fluoropyridin-2-yl)acetamide]
26 | 17.9 nM | CC1(n2cc(C(=O)c3cncc(NC(=O)Cc4ccc(C(F)(F)F)c(F)c4)c3)c3cncnc32)COC1 [Example 573, 2-(3-Fluoro-4-trifluoromethyl-phenyl)-N-{5-[7-(3-methyl-oxetan-3-yl)-7H-pyrrolo[2,3-d]pyrimidine-5-carbonyl]-pyridin-3-yl}-acetamide]
27 | 39 nM | O=C(Nc1cncc(C(=O)c2cn(C(CO)CO)c3ncncc23)c1)c1cccc(OC(F)(F)F)c1 [Example 271, N-(5-(7-(1,3-dihydroxypropan-2-yl)-7H-pyrrolo[2,3-d]pyrimidine-5-carbonyl)pyridin-3-yl)-3-(trifluoromethoxy)benzamide]
28 | 32.3 nM | N-(5-(7-(1,3-dihydroxy-2-methylpropan-2-yl)-7H-pyrrolo[2,3-d]pyrimidine-5-carbonyl)pyridin-3-yl)-2-(3-trifluoromethoxy)phenyl)acetamide [Example 262]
29 | 56.6 nM | CC(C)n1cc(C(=O)c2cncc(NC(=O)Cn3cc(C4CC4)nn3)c2)c2cncnc21 [Example 88, 2-(4-cyclopropyl-1H-1,2,3-triazol-1-yl)-N-{5-[(7-isopropyl-7H-pyrrolo[2,3-d]pyrimidin-5-yl)carbonyl]pyridin-3-yl}acetamide]
30 | 31.2 nM | CC(C)c1csc(C(=O)Nc2cncc(C(=O)c3cn(C(C)C)c4ncncc34)c2)n1 [Example 438, 4-Isopropyl-thiazole-2-carboxylic acid [5-(7-isopropyl-7H-pyrrolo[2,3-d]pyrimidine-5-carbonyl)-pyridin-3-yl]-amide]
31 | 143 nM | CC(C)n1cc(C(=O)c2cncc(NC(=O)Cn3ncc4ccc([N+](=O)[O-])cc43)c2)c2cncnc21 [Example 123, N-{5-[(7-isopropyl-7H-pyrrolo[2,3-d]pyrimidin-5-yl)carbonyl]pyridin-3-yl}-2-(6-nitro-1H-indazol-1-yl)acetamide]
32 | 206 nM | CC(C)n1cc(C(=O)c2cncc(NC(=O)Cc3cn4ccccc4n3)c2)c2cncnc21 [Example 128, 2-imidazo[1,2-a]pyridin-2-yl-N-{5-[(7-isopropyl-7H-pyrrolo[2,3-d]pyrimidin-5-yl)carbonyl]pyridin-3-yl}acetamide]
33 | 65.7 nM | CC(C)n1cc(C(=O)c2cncc(NC(=O)Cc3c[nH]c4ccc(Cl)cc34)c2)c2cncnc21 [Example 139, 2-(5-chloro-1H-indol-3-yl)-N-{5-[(7-isopropyl-7H-pyrrolo[2,3-d]pyrimidin-5-yl)carbonyl]pyridin-3-yl}acetamide]
